Series [1] deals with Male ddY mice (hypobaric hypoxia). Kind of series: Hypobaric Hypoxia Activity (survival time of mice at 180 mmHg). As to conditions: Mus musculus, ip, 30 minutes before evacuation, survival time vs. control, read-out: Hypobaric Hypoxia (Minimum effective dose). The class given is in vivo. The protocol: (§1) The activities of some compounds prepared in the above-mentioned Synthetic Examples and the Comparative Examples were evaluated as follows.
1. Hypobaric Hypoxia Activity
Male ddY mice having a body weight of 22 to 30 g were used (i.e., 7 to 10 mice in one group). The mice were placed in a desiccator having a volume of about 1 liter and the desiccator was evacuated and then, the sample compound was intraperitoneally injected […]. into the mice. The desiccator was evacuated 30 minutes after the injection and the time from the start of the evacuation to the termination of breathing by the mice was determined to be the survival time. If a mouse was still alive 15 minutes after exposure to the hypoxia, the survival time was assumed to be 15 minutes. The results were compared with a control group, to which only a liquid medium (e.g., physiological saline) was injected.

The nature of the next series: Acute Toxicity Test. The following applies: mouse, in vivo; ip, mice, suspended in 1% arabic gum. From the text: Male ddY-STF mice having an age of 4 to 5 weeks and a body weight of 22 to 30 g were used for evaluating the acute toxicity of the present compounds. The sample compound was suspended in 1% arabic gum and was intraperitoneally injected.
In series [2] the test system is Male ddY mice (global ischemia). Kind of series: Global Ischemia Activity (gasping time after decapitation). The class given is in vivo. As to conditions: ip. The protocol: as §1
2. Global Ischemia Activity
Male ddY mice having a body weight of 22 to 30 g were used (i.e., 6 mice in one group). The sample compound was intraperitoneally injected into the mice and the mice were decapitated 30 minutes after the injection. After decapitation, the gasping times were determined. The results were compared with a control group to which only the liquid medium (i.e., physiological saline) was injected.

What is called LD50 is the dose at which mortality reaches 50%. Regarding `COC1=C(OC)C(=O)C(C(CCC(=O)N2CCSCC2)c2ccccc2)=C(C)C1=O` (stereo not drawn) [Example 1, 4-(3,4-dimethoxy-6-methyl-2,5-benzoquinonyl)-4-phenyl-1-thiomorpholine-1-oxobutane], the minimal effective dose in series [1] worked out at 6.25 mg/kg; in series [2] (Mus musculus, 30 minutes before decapitation, gasping time vs. control, read-out: Global Ischemia (Minimum effective dose)), 12.5 mg/kg. In addition, the 50% lethal dose (LD50) in the series “Acute Toxicity Test” was above 1000 mg/kg.
For the molecule `COC1=C(OC)C(=O)C(C(CCC(=O)N2CCN(C)CC2)c2ccccc2)=C(C)C1=O` (stereo not drawn) [Example 3, 4-(3,4-Dimethoxy-6-methyl-2,5-benzoquinonyl)-4-phenyl-1-(N-methylpiperazinyl)-1-oxobutane], the minimal effective dose in series [1] came to 25 mg/kg.
`COC1=C(OC)C(=O)C(C(CCCC(=O)N2CCSCC2)c2ccccc2)=C(C)C1=O` (stereo not drawn) [Example 4, 5-(3,4-dimethoxy-6-methyl-2,5-benzoquinonyl)-5-phenyl-1-thiomorpholino-1-oxopentane]: the minimal effective dose in series [1] stood at 6.25 mg/kg. This molecule yielded an LD50 in “Acute Toxicity Test” above 1000 mg/kg.
The corresponding values for `COC1=C(OC)C(=O)C(C(CCCC(=O)N2CCOCC2)c2ccccc2)=C(C)C1=O` (stereo not drawn) [Example 5, 5-(3,4-dimethoxy-6-methyl-2,5-benzoquinonyl)-5-phenyl-1-morpholino-1-oxopentane] are 6.25 mg/kg and above 1000 mg/kg.
Regarding `COC1=C(OC)C(=O)C(C(CCC(=O)O)c2ccccc2)=C(C)C1=O` (stereo not drawn) [compound 1, 4-(3,4-Dimethoxy-6-methyl-2,5-benzoquinonyl)-4-phenylbutyric acid, reference compound], in “Acute Toxicity Test”, the median lethal dose (LD50) was above 500 mg/kg.
`COC1=C(OC)C(=O)C(C(CCCC(=O)O)c2ccccc2)=C(C)C1=O` (stereo not drawn) [compound 2, 5-(3,4-Dimethoxy-6-methyl-2,5-benzoquinonyl)-5-phenylvaleric acid, reference compound] registered an LD50 in the series “Acute Toxicity Test” above 500 mg/kg.
`COC1=C(OC)C(=O)C(C(CCCCCC(=O)O)c2ccccc2)=C(C)C1=O` (stereo not drawn) [compound 3, 7-(3,4-Dimethoxy-6-methyl-2,5-benzoquinonyl)-7-phenylheptanoic acid, reference compound] returned an LD50 in the series “Acute Toxicity Test” above 500 mg/kg. Also, in series [2] (25 mg/kg), the Gasping time entry is listed as “Gasping time was shortened”.
